Laboratory results reported in publication PMC3763632, “Radiosynthesis and Radiotracer Properties of a 7-(2-[^18F]Fluoroethoxy)-6-methoxypyrrolidinylquinazoline for Imaging of Phosphodiesterase 10A with PET” (Pharmaceuticals, 2012).
Where “and” joins values, the source holds several entries; their conditions need not be identical. Identical values can stand only once.

Test: Biodistribution after i.v. injection
Assay type: in vivo, female CD-1 mice
Conditions: for striatum-to-blood ratio: mice
Protocol: The organ distribution of [^18F]IV after i.v. injection was investigated in female CD-1 mice. Time-activity data for ^18F corresponding uptake in peripheral organs, in the brain and in particular in the striatum at 5, 30, 60 and 120 min p.i. are presented in Table 2.
Conscious mice received a tail-vein injection of about 300 kBq of [^18F]IV, dissolved in 200 µL isotonic saline. At 5, 30, 60 and 120 min p.i. animals (n = 3–6 per time) were anaesthetized, and blood and urine samples were taken. After sacrifice, organs of interest were removed, separated, weighed, and radioactivity was measured in a calibrated γ-counter (Wallac WIZARD, Perkin Elmer, Waltham, MA, USA). Striatum was dissected from the brain and investigated separately. The percentage of the injected dose per gram of wet tissue (% ID/g) was calculated by the quotient of tissue counts and initial dose counts, and weight of the tissue sample.

## COc1cc2c(N3CC[C@@H](Oc4cnc5ccccc5n4)C3)ncnc2cc1OCC[18F] [[^18F]IV, (R)-7-(2-[^18F]Fluoroethoxy)-6-methoxy-4-(3-(quinoxalin-2-yloxy)pyrrolidin-1-yl)quinazoline]
30 min p.i.
  striatum-to-blood ratio: 1.0
60 min p.i.
  striatum-to-blood ratio: 0.8
120 min p.i.
  striatum-to-blood ratio: 0.8
control, 5 min p.i.
  18F uptake, Adrenals: 25.4 ± 5.87 % ID/g Wet Weight
  18F uptake, Bladder: 1.85 ± 0.39 % ID/g Wet Weight
  18F uptake, Blood: 1.88 ± 0.08 % ID/g Wet Weight
  18F uptake, Brain: 1.99 ± 0.21 % ID/g Wet Weight
  18F uptake, Colon: 0.55 ± 0.05 % ID/g Wet Weight
  18F uptake, Femurs: 2.00 ± 0.36 % ID/g Wet Weight
  18F uptake, Femurs (fl.) (flushed): 1.11 ± 0.32 % ID/g Wet Weight
  18F uptake, Gonads: 2.58 ± 0.46 % ID/g Wet Weight
  18F uptake, Heart: 4.01 ± 0.47 % ID/g Wet Weight
  18F uptake, Intestine: 13.5 % ID/g Wet Weight and 13.5 ± 4.15 % ID/g Wet Weight
  18F uptake, Kidneys: 7.65 ± 0.54 % ID/g Wet Weight
  18F uptake, Liver: 20.5 % ID/g Wet Weight and 20.5 ± 1.87 % ID/g Wet Weight
  18F uptake, Lungs: 4.01 ± 0.51 % ID/g Wet Weight
  18F uptake, Muscles: 1.75 ± 0.12 % ID/g Wet Weight
  18F uptake, Pancreas: 5.19 ± 0.42 % ID/g Wet Weight
  18F uptake, Plasma: 3.97 ± 1.41 % ID/g Wet Weight
  18F uptake, Spleen: 4.23 ± 0.51 % ID/g Wet Weight
  18F uptake, Stomach: 6.14 ± 2.04 % ID/g Wet Weight
  18F uptake, Striatum: 2.3 % ID/g Wet Weight and 2.32 % ID/g Wet Weight and 2.32 ± 0.49 % ID/g Wet Weight
  18F uptake, Thymus: 3.10 ± 0.45 % ID/g Wet Weight
  18F uptake, Urine: 56.4 % ID/g Wet Weight and 56.4 ± 105 % ID/g Wet Weight
control, 30 min p.i.
  18F uptake, Bladder: 3.51 ± 1.39 % ID/g Wet Weight
  18F uptake, Blood: 1.69 ± 0.38 % ID/g Wet Weight
  18F uptake, Brain: 1.54 ± 0.30 % ID/g Wet Weight
  18F uptake, Colon: 0.88 ± 0.44 % ID/g Wet Weight
  18F uptake, Femurs: 2.14 ± 1.13 % ID/g Wet Weight
  18F uptake, Femurs (fl.) (flushed): 0.67 ± 0.24 % ID/g Wet Weight
  18F uptake, Gonads: 3.94 ± 0.84 % ID/g Wet Weight
  18F uptake, Heart: 2.93 ± 0.71 % ID/g Wet Weight
  18F uptake, Intestine: 43.2 ± 21.9 % ID/g Wet Weight
  18F uptake, Kidneys: 5.34 ± 1.4 % ID/g Wet Weight
  18F uptake, Liver: 16.4 ± 4.00 % ID/g Wet Weight
  18F uptake, Lungs: 3.51 ± 1.26 % ID/g Wet Weight
  18F uptake, Muscles: 1.31 ± 0.32 % ID/g Wet Weight
  18F uptake, Pancreas: 3.14 ± 0.70 % ID/g Wet Weight
  18F uptake, Plasma: 2.87 ± 0.54 % ID/g Wet Weight
  18F uptake, Spleen: 2.85 ± 0.60 % ID/g Wet Weight
  18F uptake, Stomach: 15.8 ± 6.09 % ID/g Wet Weight
  18F uptake, Striatum: 1.69 ± 0.44 % ID/g Wet Weight
  18F uptake, Thymus: 2.61 ± 0.50 % ID/g Wet Weight
  18F uptake, Urine: 18.5 ± 16.8 % ID/g Wet Weight
control, 60 min p.i.
  18F uptake, Adrenals: 28.2 ± 11.4 % ID/g Wet Weight
  18F uptake, Bladder: 2.60 ± 0.78 % ID/g Wet Weight
  18F uptake, Blood: 1.45 ± 0.20 % ID/g Wet Weight
  18F uptake, Brain: 1.08 ± 0.26 % ID/g Wet Weight
  18F uptake, Colon: 1.08 ± 0.43 % ID/g Wet Weight
  18F uptake, Femurs: 2.95 ± 3.73 % ID/g Wet Weight
  18F uptake, Femurs (fl.) (flushed): 0.58 ± 0.42 % ID/g Wet Weight
  18F uptake, Gonads: 3.50 ± 1.22 % ID/g Wet Weight
  18F uptake, Heart: 2.16 ± 0.45 % ID/g Wet Weight
  18F uptake, Intestine: 42.8 % ID/g Wet Weight and 42.8 ± 33.5 % ID/g Wet Weight
  18F uptake, Kidneys: 4.29 ± 0.93 % ID/g Wet Weight
  18F uptake, Liver: 14.5 ± 4.54 % ID/g Wet Weight
  18F uptake, Lungs: 2.37 ± 0.62 % ID/g Wet Weight
  18F uptake, Muscles: 1.22 ± 0.28 % ID/g Wet Weight
  18F uptake, Pancreas: 2.77 ± 0.85 % ID/g Wet Weight
  18F uptake, Plasma: 2.59 ± 0.36 % ID/g Wet Weight
  18F uptake, Spleen: 2.30 ± 0.25 % ID/g Wet Weight
  18F uptake, Stomach: 12.6 ± 5.08 % ID/g Wet Weight
  18F uptake, Striatum: 1.14 ± 0.29 % ID/g Wet Weight
  18F uptake, Thymus: 2.08 ± 0.51 % ID/g Wet Weight
  18F uptake, Urine: 23.1 ± 9.31 % ID/g Wet Weight
control, 60 min p.i., single values, n = 2
  18F uptake, Skin: 1.45 % ID/g Wet Weight and 1.17 % ID/g Wet Weight
control, 120 min p.i.
  18F uptake, Adrenals: 19.3 ± 13.2 % ID/g Wet Weight
